Values quoted from earlier work as cited in US20080268066A1, “Synergistic Formulation for Preventing and/or Treating Diabetes” (priority 2005, published 2008).
Where a name gives a salt, the structure may show the parent alone. Read-outs that look alike come from different tables or passages of the source.

Legend:
[1] = tested on: women of polycystic ovary syndrome (PCOS); settings: daily dose of 1500 mg, 8 weeks later, about 20 women
[2] = intravenous 600 mg, 5 times, after two weeks; control group 2 points
[3] = tested on: homocysteine; settings: human, in vivo
[4] = tested on: babies of mothers with diabetes / embryos in similar glucose concentration; settings: 71%-88% without
[5] = tested on: acute medicamentous kidney lesion
[6] = tested on: patients with retinal degeneration; settings: among 16 patients; supplement every day for 6 months or more
[7] = tested on: prostatic carcinoma
[8] = tested on: prostate cancer; settings: fraction

For `CN(C)C(=N)N=C(N)N` [Metformin HCl], the “women whose menstruation recovered to a normal level” value [1] is listed as 86.7%.
For `O=C(O)CCCCC1CCSS1` (stereo not drawn) [alpha_lipoic acid], the “decrease of the feeling of pain” value [2] is listed as 6 points.
For `Nc1nc2ncc(CNc3ccc(C(=O)N[C@@H](CCC(=O)O)C(=O)O)cc3)nc2c(=O)[nH]1` [folic acid], the “decrease of the level of homocysteine” value [3] is given as 25%, the “probability of babies' aplasia” value ([4]; embryos in similar glucose concentration with folic acid) is given as 5% and the “probability of babies' aplasia” value ([4]; pregnant animals fed with folic acid) is given as 3%.
In the case of `N[C@@H](CCC(=O)N[C@@H](CS)C(=O)NCC(=O)O)C(=O)O` [glutathione, L-glutamic acid-L-cysteine-glycine], the “total effectiveness on blood urine” value ([5]; P<0.01) is listed as 89%, the total effectiveness ([5]; P<0.05) is listed as 92% and the “total effectiveness on proteinuria” value ([5]; P<0.05) is listed as 57%.
For `CC1=C[C@H](O)CC(C)(C)[C@H]1/C=C/C(C)=C/C=C/C(C)=C/C=C/C=C(C)/C=C/C=C(C)/C=C/C1=C(C)C[C@@H](O)CC1(C)C` [lutein], the “patients whose vision was apparently improved” value [6] is listed as 12 patients.
For `CC(C)=CCC/C(C)=C/C=C/C(C)=C/C=C/C(C)=C/C=C/C=C(C)/C=C/C=C(C)/C=C/C=C(\C)CCC=C(C)C` [lycopene], the “patients in whom cancer cells proliferation were stopped” value ([7]; human, in vivo) is listed as 44% and the “patients with size of the tumor not over 4 dm^3” value ([7]; taken 3 weeks before the operation, 55% without) is listed as 85%.
For `[Se]` [selenium], the “decrease of the occurrence of prostate cancer” value [8] is listed as “½-⅓”.
